Results: PMC8698657, “Absorption and Transport Characteristics and Mechanisms of Carnosic Acid” (Biology, 2021)
Like-named read-outs stand apart in the source and are kept apart here.

Experiments:
[1] = Trans-enterocyte transport of CA in Caco-2 cell monolayer; assay type: in vitro ADME, human; details: human
Method: (§1) Caco-2 were cultured in EMEM complete medium containing 10% FBS, 1% non-essential amino acids, and 1% penicillin-streptomycin double antibody, and the culture conditions were 37 °C, 5% CO2, in a constant temperature incubator [16]. We first established non-toxic dose ranges of CA in Caco-2 cells using MTT assay. Dimethylsulfoxide (DMSO) was used as the vehicle to deliver CA to the cells. The final concentration of DMSO in all experiments was 0.1% (v/v) in cell culture media. Caco-2 cells were seeded in a 96-well plate at a cell density of 5 × 10^4 cells/mL per well, and cultured under 5% CO2 and 37 °C for 24 h. A quantity of 200 μL of medium was added to each well to obtain a series of CA solutions (concentrations of 25, 50, 75, and 100 μmoL). After 48 h of treatment, Caco-2 cells were subjected to the MTT assay as described previously. For the transport study, Caco-2 cells were seeded on the apical compartment (AP) of 12-well Transwell plates at a density of 2 × 10^5 cells/mL. The complete culture medium was added into basolateral (BL) and AP compartments. The basolateral medium was replaced every other day.
(§2) CA was dissolved in HBSS solution at 50, 75, and 100 μM. The HBSS solution containing CA combined with 0.5% Tween 80, 5 mmol/L EDTA or 5% PEG 400 was prepared. The cumulative migration (Qr), apparent permeability coefficient (Papp), and the Papp value of bi-direction transport of CA were calculated according to formulas.
(§3) The 0.5 mL […] containing different concentrations of CA was added to the AP side of the 12-well Transwell plate, and 1.5 mL HBSS solution was added to the BL side. At 0, 0.5, 1, 1.5, 2, 2.5, and 3 h, 0.2 mL medium was taken from the BL side and stored at −80 °C. The TEER value of each Transwell chamber was measured.
(§4) The cryopreserved Transwell samples were transferred to a 15 mL centrifuge tube, and any remaining liquid was fully washed using 1 mL of 50% methanol solution which was also transferred to the 15 mL centrifuge tube. The mixture was vortexed for 1 min, and 6 mL of ethyl acetate solution was added to the tube and vortexed for another 2 min. The mixture was centrifuged at 6000 rpm/min at 4 °C for 10 min. The supernatant was dried under vacuum, dissolved in 5% phosphoric acid methanol solution, and filtered through a 0.22 μm microporous membrane. The concentration of CA was determined by HPLC as described above.

[2] = system: Caco-2 cell monolayer; assay: as above; assay type: in vitro ADME, human; details: CA 50–100 μM
Method: as §1, §2, §3, §4

[3] = MTT assay, non-toxic dose range of CA; assay type: cell-based; details: human, Caco-2 cells, CA 100 μM, vs untreated cells, read-out: cell viability
Method: as §1

[4] = Caco-2, CA 75 μM, Average of 0.5-3.0 h
[5] = Caco-2, CA 100 μM, Average of 0.5-3.0 h

CC(C)c1cc2c(c(O)c1O)[C@@]1(C(=O)O)CCCC(C)(C)[C@@H]1CC2 [CA, Carnosic acid]
Papp B→A at 3 h, 75 μM ([1]; Caco-2, CA 75 μM, 3.0 h): 0.38 ± 0.03 ×10⁻⁶ cm/s | efflux ratio at 3 h, 75 μM ([1]; Caco-2, CA 75 μM, 3.0 h): 0.61 | Papp A→B at 3 h, 75 μM ([1]; Caco-2, CA 75 μM, 3.0 h, CA alone, read-out: Papp AP to BL): 0.62 ± 0.01 ×10⁻⁶ cm/s | Papp A→B at 3 h, 75 μM ([1]; Caco-2, CA 75 μM, 3.0 h, read-out: Papp AP-BL): 0.62 ± 0.01 ×10⁻⁶ cm/s | Papp B→A at 75 μM [1, 4]: 0.66 ± 0.06 ×10⁻⁶ cm/s | efflux ratio at 75 μM [1, 4]: 0.63 | Papp A→B at 75 μM ([1]; Caco-2, CA 75 μM, Average of 0.5-3.0 h, CA alone, read-out: Papp AP to BL): 1.04 ± 0.02 ×10⁻⁶ cm/s | Papp A→B at 75 μM ([1]; Caco-2, CA 75 μM, Average of 0.5-3.0 h, read-out: Papp AP-BL): 1.04 ± 0.05 ×10⁻⁶ cm/s | Papp B→A at 0.5 h, 100 μM ([1]; Caco-2, CA 100 μM, 0.5 h): 0.39 ± 0.03 ×10⁻⁶ cm/s | efflux ratio at 0.5 h, 100 μM ([1]; Caco-2, CA 100 μM, 0.5 h): 0.35 | Papp A→B at 0.5 h, 100 μM ([1]; Caco-2, CA 100 μM, 0.5 h, CA alone, read-out: Papp AP to BL): 1.1 ± 0.1 ×10⁻⁶ cm/s | Papp A→B at 0.5 h, 100 μM ([1]; Caco-2, CA 100 μM, 0.5 h, read-out: Papp AP-BL): 1.1 ± 0.1 ×10⁻⁶ cm/s | Papp B→A at 1 h, 100 μM ([1]; Caco-2, CA 100 μM, 1.0 h): 0.56 ± 0.04 ×10⁻⁶ cm/s | efflux ratio at 1 h, 100 μM ([1]; Caco-2, CA 100 μM, 1.0 h): 0.42 | Papp A→B at 1 h, 100 μM ([1]; Caco-2, CA 100 μM, 1.0 h, CA alone, read-out: Papp AP to BL): 1.32 ± 0.09 ×10⁻⁶ cm/s | Papp A→B at 1 h, 100 μM ([1]; Caco-2, CA 100 μM, 1.0 h, read-out: Papp AP-BL): 1.32 ± 0.09 ×10⁻⁶ cm/s | Papp B→A at 1.5 h, 100 μM ([1]; Caco-2, CA 100 μM, 1.5 h): 2.53 ± 0.03 ×10⁻⁶ cm/s | efflux ratio at 1.5 h, 100 μM ([1]; Caco-2, CA 100 μM, 1.5 h): 1.07 | Papp A→B at 1.5 h, 100 μM ([1]; Caco-2, CA 100 μM, 1.5 h, CA alone, read-out: Papp AP to BL): 2.36 ± 0.08 ×10⁻⁶ cm/s | Papp A→B at 1.5 h, 100 μM ([1]; Caco-2, CA 100 μM, 1.5 h, read-out: Papp AP-BL): 2.36 ± 0.08 ×10⁻⁶ cm/s | Papp B→A at 2 h, 100 μM ([1]; Caco-2, CA 100 μM, 2.0 h): 1.33 ± 0.05 ×10⁻⁶ cm/s | Papp A→B at 2 h, 100 μM ([1]; Caco-2, CA 100 μM, 2.0 h, CA alone, read-out: Papp AP to BL): 0.87 ± 0.02 ×10⁻⁶ cm/s | efflux ratio at 2 h, 100 μM ([1]; Caco-2, CA 100 μM, 2.0 h, read-out: Efflux Ratio): 1.52 | Papp A→B at 2 h, 100 μM ([1]; Caco-2, CA 100 μM, 2.0 h, read-out: Papp AP-BL): 0.87 ± 0.02 ×10⁻⁶ cm/s | Papp B→A at 2.5 h, 100 μM ([1]; Caco-2, CA 100 μM, 2.5 h): 1.45 ± 0.01 ×10⁻⁶ cm/s | efflux ratio at 2.5 h, 100 μM ([1]; Caco-2, CA 100 μM, 2.5 h): 1.7 | Papp A→B at 2.5 h, 100 μM ([1]; Caco-2, CA 100 μM, 2.5 h, CA alone, read-out: Papp AP to BL): 0.85 ± 0.05 ×10⁻⁶ cm/s | Papp A→B at 2.5 h, 100 μM ([1]; Caco-2, CA 100 μM, 2.5 h, read-out: Papp AP-BL): 0.85 ± 0.05 ×10⁻⁶ cm/s | Papp B→A at 3 h, 100 μM ([1]; Caco-2, CA 100 μM, 3.0 h): 1.23 ± 0.03 ×10⁻⁶ cm/s | efflux ratio at 3 h, 100 μM ([1]; Caco-2, CA 100 μM, 3.0 h): 1.53 | Papp A→B at 3 h, 100 μM ([1]; Caco-2, CA 100 μM, 3.0 h, CA alone, read-out: Papp AP to BL): 0.8 ± 0.09 ×10⁻⁶ cm/s | Papp A→B at 3 h, 100 μM ([1]; Caco-2, CA 100 μM, 3.0 h, read-out: Papp AP-BL): 0.8 ± 0.09 ×10⁻⁶ cm/s | Papp B→A at 100 μM [1, 5]: 1.24 ± 0.04 ×10⁻⁶ cm/s | efflux ratio at 100 μM [1, 5]: 1.03 | Papp A→B at 100 μM ([1]; Caco-2, CA 100 μM, Average of 0.5-3.0 h, CA alone, read-out: Papp AP to BL): 1.21 ± 0.03 ×10⁻⁶ cm/s | Papp A→B at 100 μM ([1]; Caco-2, CA 100 μM, Average of 0.5-3.0 h, read-out: Papp AP-BL): 1.2 ± 0.07 ×10⁻⁶ cm/s | efflux ratio at 2 h, 100 μM ([1]; Caco-2, CA 100 μM, after 2-hour incubation, read-out: efflux ratios): 1.52 to 1.7 | efflux ratio ([1]; Caco-2, CA 50 and 75 μM, except 50 μM after 3-hour incubation, read-out: efflux ratios): < 1 | Papp A→B at 1 h, 75 μM ([1]; Caco-2, CA 75 μM, 1.0 h): 1.08 ± 0.04 ×10⁻⁶ cm/s | Papp B→A at 1 h, 75 μM ([1]; Caco-2, CA 75 μM, 1.0 h): 0.86 ± 0.05 ×10⁻⁶ cm/s | efflux ratio at 1 h, 75 μM ([1]; Caco-2, CA 75 μM, 1.0 h): 0.79 | Papp ([1]; Caco-2, CA 50–100 μM, 0.5-3 h, read-out: Papp values in both the AP-BL and BL-AP directions): 0.12 to 2.53 ×10⁻⁶ cm/s | permeability classification [2]: moderately permeable | viability at 48 h, 100 μM [3]: > 90%
